Test results taken from patent US6333176A (Degussa Aktiengesellschaft, priority 1994, dated 2001).
Peptide text beside a SMILES is read from it.

Columns and labels:
[1] = biological target: T1, peptide amidase from Xanthomonas maltophilia (Stenotrophomonas maltophilia, UniProt Q8RJN5); test: Substrate spectrum of peptide amidase, enzymatic determination of the released ammonia; type: biochemical; conditions: substrate 10 mM, 18 mU peptide amidase per ml, 50 mM tris/HCl pH 7.5, 30° C., 3 hours
T1 construct: wild type, not recombinant
T1 sequence (Q8RJN5 34-540): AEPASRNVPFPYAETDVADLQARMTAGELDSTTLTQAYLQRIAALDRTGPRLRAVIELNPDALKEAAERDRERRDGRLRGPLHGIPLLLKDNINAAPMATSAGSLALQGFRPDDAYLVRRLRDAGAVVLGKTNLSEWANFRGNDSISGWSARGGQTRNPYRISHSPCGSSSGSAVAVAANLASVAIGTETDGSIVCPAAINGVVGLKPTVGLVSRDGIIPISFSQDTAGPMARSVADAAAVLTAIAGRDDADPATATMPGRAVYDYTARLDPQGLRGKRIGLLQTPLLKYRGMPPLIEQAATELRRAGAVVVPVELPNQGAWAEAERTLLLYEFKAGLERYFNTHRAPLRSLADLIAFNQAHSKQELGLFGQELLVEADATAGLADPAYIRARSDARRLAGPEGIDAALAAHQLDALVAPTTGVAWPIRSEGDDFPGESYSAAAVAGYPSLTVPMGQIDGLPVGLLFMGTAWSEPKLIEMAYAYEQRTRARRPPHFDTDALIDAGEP
Protocol: (§1) 18 mU of peptide amidase (purification state after the gel filtration) per ml test batch was used for the substrate spectrum of peptide amidase from Xanthomonas maltophilia. The concentration of the tested substrates was 10 mM in the reaction batch. Unless otherwise indicated, L-amino acid derivatives were used. The incubation took place in 50 mM tris/HCl, pH 7.5 at 30° C. for 3 hours. The reaction was stopped by heating for 5 minutes at 95° C. The determination of activity took place using enzymatic determination of the released ammonia (Bergmeyer, U. (1985): Methods of Enzymatic Analysis, p. 459, VCH Verlagsgesellschaft, Weinheim).

[2] = biological target: T1, peptide amidase from Xanthomonas maltophilia; test: Enzymatic conversion of unprotected amino acid amides, thin-layer chromatography; type: biochemical; conditions: substrate 10 mM
Protocol: as §1
The following thin-layer chromatographic methods were used for the analysis of the substrates and products cited in table 4d. To this end 1 μl of the stopped reaction batch was applied.

CC(C)C[C@H](N)C(=O)N[C@@H](Cc1ccccc1)C(N)=O [Leu-Phe-NH2] (H-Leu-Phe-NH2)
Relative conversion (conversion of dipeptide amides, Table 4a) [1]: 203%

CC(=O)NC(CC(C)(C)C)C(N)=O (racemic) [Ac-D,L-neopentylglycine amide, Nα -acetyl-DL-neopentylglycine Amide]
Relative conversion (conversion of N-acetyl amino acid amides, Table 4b) [1]: 131%

CC(C)C[C@@H](N)C(N)=O [H-D-Leu-NH2]
Conversion (unprotected amino acid amides) [2]: 0 | Conversion (unprotected amino acid amides, Table 4d) [2]: 0

CC(=O)N[C@@H](Cc1ccc(O)cc1)C(N)=O [Ac-Tyr-NH2]
Relative conversion (conversion of N-acetyl amino acid amides, Table 4b) [1]: 123% | Relative conversion (influence of protective group and adjacent amino acid, Table 4c) [1]: 123%

NC(=O)[C@H](Cc1ccc(O)cc1)NC(=O)c1ccccc1 [Bz-Tyr-NH2]
Relative conversion (influence of protective group and adjacent amino acid, Table 4c) [1]: 173%

CC(C)[C@H](N)C(=O)NCC(N)=O [Val-Gly-NH2] (H-Val-Gly-NH2)
Relative conversion (conversion of dipeptide amides, Table 4a) [1]: 22%

NC(=O)[C@@H](N)Cc1c[nH]c2ccccc12 [H-Trp-NH2]
Conversion (unprotected amino acid amides) [2]: 0 | Conversion (unprotected amino acid amides, Table 4d) [2]: 0

N=C(N)NCCC[C@H](N)C(N)=O [H-arg-NH2]
Conversion (unprotected amino acid amides) [2]: 0 | Conversion (unprotected amino acid amides, Table 4d) [2]: 0

CC(=O)N[C@@H](CCC(=O)O)C(N)=O [Ac-Glu-NH2]
Relative conversion (conversion of N-acetyl amino acid amides, Table 4b) [1]: 162%

NC(=O)[C@@H](N)CO [H-Ser-NH2]
Conversion (unprotected amino acid amides) [2]: 0 | Conversion (unprotected amino acid amides, Table 4d) [2]: 0

CC[C@H](C)[C@H](NC(C)=O)C(N)=O [Ac-Ile-NH2]
Relative conversion (conversion of N-acetyl amino acid amides, Table 4b) [1]: 6%

CC(=O)N[C@@H](CO)C(N)=O [Ac-Ser-NH2]
Relative conversion (conversion of N-acetyl amino acid amides, Table 4b) [1]: 58%

C[C@H](N)C(=O)N[C@@H](Cc1ccccc1)C(N)=O [Ala-Phe-NH2]
Relative conversion (conversion of dipeptide amides, Table 4a) [1]: 218%

CC(=O)N[C@@H](C)C(N)=O [Ac-Ala-NH2]
Relative conversion (conversion of N-acetyl amino acid amides, Table 4b) [1]: 182%

NCC(=O)N[C@@H](Cc1ccccc1)C(N)=O [Gly-Phe-NH2] (H-Gly-Phe-NH2)
Relative conversion (conversion of dipeptide amides, Table 4a) [1]: 214%

NC(=O)[C@@H](N)Cc1ccc(O)cc1 [H-Tyr-NH2]
Conversion (unprotected amino acid amides) [2]: 0 | Conversion (unprotected amino acid amides, Table 4d) [2]: 0

C[C@H](N)C(N)=O [H-Ala-NH2]
Conversion (unprotected amino acid amides) [2]: 0 | Conversion (unprotected amino acid amides, Table 4d) [2]: 0

CC(=O)N[C@H](C(N)=O)[C@@H](C)O [Ac-Thr-NH2]
Relative conversion (conversion of N-acetyl amino acid amides, Table 4b) [1]: 21%

CC(C)C[C@H](N)C(=O)N[C@@H](C)C(N)=O [Leu-Ala-NH2] (H-Leu-Ala-NH2)
Relative conversion (conversion of dipeptide amides, Table 4a) [1]: 217% | Relative conversion (influence of protective group and adjacent amino acid, Table 4c) [1]: 217%

CC[C@H](C)[C@H](N)C(N)=O [H-Ile-NH2]
Conversion (unprotected amino acid amides) [2]: 0 | Conversion (unprotected amino acid amides, Table 4d) [2]: 0

CC(=O)N[C@@H](CS)C(N)=O
Relative conversion (conversion of N-acetyl amino acid amides, Table 4b) [1]: 82%

CSCC[C@H](NC(=O)[C@@H](N)CCCNC(=N)N)C(N)=O [Arg-Met-NH2] (H-Arg-Met-NH2)
Relative conversion (influence of protective group and adjacent amino acid, Table 4c) [1]: 125%

CC(=O)N1CCC[C@H]1C(N)=O [Ac-Pro-NH2]
Relative conversion (conversion of N-acetyl amino acid amides, Table 4b) [1]: 0%

CC(C)C[C@H](N)C(=O)NCC(N)=O [Leu-Gly-NH2] (H-Leu-Gly-NH2)
Relative conversion (conversion of dipeptide amides, Table 4a) [1]: 54%

C[C@H](NC(=O)[C@@H](N)Cc1ccccc1)C(N)=O [Phe-Ala-NH2]
Relative conversion (conversion of dipeptide amides, Table 4a) [1]: 203% | Relative conversion (influence of protective group and adjacent amino acid, Table 4c) [1]: 203%

C[C@H](NC(=O)OCc1ccccc1)C(N)=O [Z-Ala-NH2]
Relative conversion (influence of protective group and adjacent amino acid, Table 4c) [1]: 62%

NC(=O)[C@H](Cc1ccccc1)NC(=O)[C@@H](N)CO [Ser-Phe-NH2]
Relative conversion (conversion of dipeptide amides, Table 4a) [1]: 217%

CC(C)C[C@H](N)C(N)=O [H-Leu-NH2]
Conversion (unprotected amino acid amides) [2]: 0 | Conversion (unprotected amino acid amides, Table 4d) [2]: 0

NCCCC[C@H](N)C(N)=O [H-Lys-NH2]
Conversion (unprotected amino acid amides) [2]: 0 | Conversion (unprotected amino acid amides, Table 4d) [2]: 0

C[C@@H](O)[C@H](N)C(N)=O [H-Thr-NH2]
Conversion (unprotected amino acid amides) [2]: 0 | Conversion (unprotected amino acid amides, Table 4d) [2]: 0

NCC(=O)NCC(N)=O [Gly-Gly-NH2]
Relative conversion (conversion of dipeptide amides, Table 4a) [1]: 8%

COC(=O)NC(CCSC)C(N)=O (racemic) [N-Methoxy-D,L-Met-NH2, Nα -methoxycarbonyl-DL-methionine Amide]
Relative conversion (influence of protective group and adjacent amino acid, Table 4c) [1]: 109%

C[C@@H](NC(=O)OCc1ccccc1)C(N)=O [Z-D-Ala-NH2]
Relative conversion (influence of protective group and adjacent amino acid, Table 4c) [1]: 0%

C[C@H](N)C(=O)N[C@@H](CC(N)=O)C(=O)O [Ala-Asn-OH] (H-Ala-Asn-OH)
Relative conversion (conversion of dipeptide amides, Table 4a) [1]: 0%

NC(=O)[C@@H](N)Cc1ccccc1 [H-Phe-NH2]
Conversion (unprotected amino acid amides) [2]: 0 | Conversion (unprotected amino acid amides, Table 4d) [2]: 0

CC(=O)N[C@@H](Cc1ccccc1)C(N)=O [Ac-Phe-NH2]
Relative conversion (conversion of N-acetyl amino acid amides, Table 4b) [1]: 134%

CCOC(=O)NC(CCSC)C(N)=O (racemic) [N-Ethoxy-D,L-Met-NH2, Nα -ethoxycarbonyl-DL-methionine amide]
Relative conversion (influence of protective group and adjacent amino acid, Table 4c) [1]: 124%

NC(=O)[C@H](Cc1ccccc1)NC(=O)[C@@H](N)Cc1ccc(O)cc1 [Tyr-Phe-NH2] (H-Tyr-Phe-NH2)
Relative conversion (conversion of dipeptide amides, Table 4a) [1]: 190%

NC(=O)[C@H](Cc1ccccc1)NC(=O)[C@@H](N)Cc1cnc[nH]1 [His-Phe-NH2] (H-His-Phe-NH2)
Relative conversion (conversion of dipeptide amides, Table 4a) [1]: 137%

NCC(=O)N[C@@H](CC(N)=O)C(=O)O [Gly-Asn-OH] (H-Gly-Asn-OH)
Relative conversion (conversion of dipeptide amides, Table 4a) [1]: 0%

NCC(=O)N[C@@H](Cc1ccc(O)cc1)C(N)=O [Gly-Tyr-NH2] (H-Gly-Tyr-NH2)
Relative conversion (conversion of dipeptide amides, Table 4a) [1]: 174% | Relative conversion (influence of protective group and adjacent amino acid, Table 4c) [1]: 174%

C[C@H](N)C(=O)N[C@@H](C)C(N)=O [Ala-Ala-NH2] (H-Ala-Ala-NH2)
Relative conversion (conversion of dipeptide amides, Table 4a) [1]: 211% | Relative conversion (influence of protective group and adjacent amino acid, Table 4c) [1]: 211%

NC(=O)[C@@H]1CCCN1C(=O)[C@@H](N)Cc1ccc(O)cc1 [Tyr-Pro-NH2] (H-Tyr-Pro-NH2)
Relative conversion (conversion of dipeptide amides, Table 4a) [1]: 0%

NC(=O)CNC(=O)[C@@H](N)Cc1ccc(O)cc1 [Tyr-Gly-NH2]
Relative conversion (conversion of dipeptide amides, Table 4a) [1]: 54%

N-acetyl-naphthylalanine amide [Ac-Nal-NH2]
Relative conversion (conversion of N-acetyl amino acid amides, Table 4b) [1]: 84%

CSCCC(NC(N)=O)C(N)=O (racemic) [N-Carbamoyl-D,L-Met-NH2]
Relative conversion (influence of protective group and adjacent amino acid, Table 4c) [1]: 77%

CC(=O)N[C@@H](Cc1c[nH]cn1)C(N)=O [Ac-His-NH2]
Relative conversion (conversion of N-acetyl amino acid amides, Table 4b) [1]: 177%

CC(=O)N[C@H](C(N)=O)C(C)C [Ac-Val-NH2]
Relative conversion (conversion of N-acetyl amino acid amides, Table 4b) [1]: 1%

CC(=O)N[C@H](C(N)=O)c1ccccc1 [Ac-Phg-NH2, N-acetylphenylglycine amide]
Relative conversion (conversion of N-acetyl amino acid amides, Table 4b) [1]: 28%

NC(=O)[C@H](Cc1ccccc1)NC(=O)[C@@H]1CCCN1 [Pro-Phe-NH2] (H-Pro-Phe-NH2)
Relative conversion (conversion of dipeptide amides, Table 4a) [1]: 158%

C[C@H](N)C(=O)NCC(N)=O [Ala-Gly-NH2] (H-Ala-Gly-NH2)
Relative conversion (conversion of dipeptide amides, Table 4a) [1]: 39%

CC(C)[C@H](N)C(N)=O [H-Val-NH2]
Conversion (unprotected amino acid amides) [2]: 0 | Conversion (unprotected amino acid amides, Table 4d) [2]: 0

CC(=O)N[C@@H](CCCCN)C(N)=O [Ac-Lys-NH2]
Relative conversion (conversion of N-acetyl amino acid amides, Table 4b) [1]: 175%

CC(=O)N[C@@H](Cc1c[nH]c2ccccc12)C(N)=O [Ac-Trp-NH2]
Relative conversion (conversion of N-acetyl amino acid amides, Table 4b) [1]: 157%

CC(=O)N[C@@H](CCCNC(=N)N)C(N)=O [Ac-Arg-NH2]
Relative conversion (conversion of N-acetyl amino acid amides, Table 4b) [1]: 110%

CSCC[C@H](N)C(N)=O [H-Met-NH2]
Conversion (unprotected amino acid amides) [2]: 0 | Conversion (unprotected amino acid amides, Table 4d) [2]: 0

C[C@H](N)C(=O)N[C@@H](CCC(N)=O)C(=O)O [Ala-Gln-OH] (H-Ala-Gln-OH)
Relative conversion (conversion of dipeptide amides, Table 4a) [1]: 0%

C[C@@H](N)C(N)=O [H-D-Ala-NH2]
Conversion (unprotected amino acid amides) [2]: 0 | Conversion (unprotected amino acid amides, Table 4d) [2]: 0

NC(=O)CNC(=O)[C@@H](N)Cc1ccccc1 [Phe-Gly-NH2] (H-Phe-Gly-NH2)
Relative conversion (conversion of dipeptide amides, Table 4a) [1]: 51%

NC(=O)CNC(=O)[C@@H]1CCCN1 [Pro-Gly-NH2] (H-Pro-Gly-NH2)
Relative conversion (conversion of dipeptide amides, Table 4a) [1]: 66%

CC(C)[C@H](N)C(=O)N[C@@H](Cc1ccccc1)C(N)=O [Val-Phe-NH2] (H-Val-Phe-NH2)
Relative conversion (conversion of dipeptide amides, Table 4a) [1]: 140%
